Measurements published in ChEMBL document CHEMBL1201862, “PubChem BioAssay data set” (2004).
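Assay format: 96-well plates, 48-hour exposure. GI50 = concentration required for 50% inhibition of growth.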 The source made the active and inactive calls. No stated cut-off is given here; in the data, active = GI50 up to about 1.1 µM and inactive = higher.

Key:
Experiment in all cases: NCI tumour cell line growth inhibition, 48 h
[1] = tested on: HOP-18
[2] = tested on: HOP-92
[3] = tested on: DLD-1
[4] = tested on: OVCAR-8
[5] = tested on: LXFL 529
[6] = tested on: NCI-H23
[7] = tested on: K562
[8] = tested on: NCI-H226
[9] = tested on: TK-10
[10] = tested on: SF-295
[11] = tested on: SNB-19
[12] = tested on: KM12
[13] = tested on: RXF 631
[14] = tested on: HCT-116
[15] = tested on: A498
[16] = tested on: EKVX
[17] = tested on: SN12C
[18] = tested on: SW-620
[19] = tested on: MOLT-4
[20] = tested on: A549
[21] = tested on: COLO 205
[22] = tested on: RPMI-8226
[23] = tested on: HL-60
[24] = tested on: SNB-75
[25] = tested on: M19-MEL
[26] = tested on: M14
[27] = tested on: OVCAR-4
[28] = tested on: Malme-3M
[29] = tested on: SK-MEL-2
[30] = tested on: SK-MEL-28
[31] = tested on: HT-29
[32] = tested on: NCI-H522
[33] = tested on: UACC-62
[34] = tested on: HCC 2998
[35] = tested on: SR
[36] = tested on: SF-539
[37] = tested on: DMS-273
[38] = tested on: SK-OV-3
[39] = tested on: 786-0
[40] = tested on: SF-268
[41] = tested on: UACC-257
[42] = tested on: CCRF-CEM
[43] = tested on: HOP-62
[44] = tested on: DMS-114
[45] = tested on: UO-31
[46] = tested on: IGROV-1
[47] = tested on: XF498
[48] = tested on: SK-MEL-5
[49] = tested on: OVCAR-3
[50] = tested on: CAKI-1
[51] = tested on: LOX IMVI
[52] = tested on: OVCAR-5
[53] = tested on: SNB-78
[54] = tested on: RXF 393
[55] = tested on: ACHN
[56] = tested on: U-251
[57] = tested on: KM-20L2
[58] = tested on: NCI-H460

Measured: GI50

O=C1COc2cc3c(cc2N1)SCCC(=O)N3
inactive: [1] > 100 µM | [2] > 100 µM | [3] > 100 µM | [4] > 100 µM | [5] > 100 µM | [6] > 100 µM | [7] > 100 µM | [8] > 100 µM | [9] > 100 µM | [10] > 100 µM | [11] > 100 µM | [12] > 100 µM | [13] > 100 µM | [14] > 100 µM | [15] > 100 µM | [16] > 100 µM | [17] > 100 µM | [18] > 100 µM | [19] > 100 µM | [20] > 100 µM | [21] > 100 µM | [22] > 100 µM | [23] > 100 µM | [24] > 100 µM | [25] > 100 µM | [26] > 100 µM | [27] > 100 µM | [28] > 100 µM | [29] > 100 µM | [30] > 100 µM | [31] > 100 µM | [32] > 100 µM | [33] > 100 µM | [34] > 100 µM | [35] > 100 µM | [36] > 100 µM | [37] > 100 µM | [38] > 100 µM | [39] > 100 µM | [40] > 100 µM | [41] > 100 µM | [42] > 100 µM | [43] > 100 µM | [44] > 100 µM | [45] > 100 µM | [46] > 100 µM | [47] > 100 µM | [48] > 100 µM | [49] > 100 µM | [50] > 100 µM

CC(=O)OCC1(C)C(OC(C)=O)CCC2(C)C(CC(OC(C)=O)C3=CCOC3=O)C(O)(CO)CCC12 (centres undefined)
inactive: [1] > 100 µM | [51] > 100 µM | [2] > 100 µM | [3] > 100 µM | [4] > 100 µM | [52] > 100 µM | [53] > 100 µM | [5] > 100 µM | [6] > 100 µM | [7] > 100 µM | [8] > 100 µM | [9] > 100 µM | [10] > 100 µM | [54] > 100 µM | [11] > 100 µM | [12] > 100 µM | [55] > 100 µM | [13] > 100 µM | [14] > 100 µM | [15] > 100 µM | [16] > 100 µM | [17] > 100 µM | [18] > 100 µM | [20] > 100 µM | [21] > 100 µM | [22] > 100 µM | [23] 61.5 µM | [24] > 100 µM | [25] > 100 µM | [26] > 100 µM | [27] > 100 µM | [28] > 100 µM | [30] > 100 µM | [31] > 100 µM | [32] > 100 µM | [33] > 100 µM | [34] > 100 µM | [36] > 100 µM | [37] > 100 µM | [38] > 100 µM | [56] > 100 µM | [39] > 100 µM | [40] > 100 µM | [41] > 100 µM | [42] 53.1 µM | [57] > 100 µM | [43] > 100 µM | [45] > 100 µM | [46] > 100 µM | [47] > 100 µM | [58] > 100 µM | [48] > 100 µM | [49] > 100 µM | [50] > 100 µM
